Laboratory results taken from patent US12642870B2, “Compositions and methods for delivery of nucleic acids” (Poseida Therapeutics, Inc., priority 2020, dated 2026).

Experiments:
[1] = Particle size and PDI of hand-mixed mRNA or DNA LNPs; format: physicochemical; settings: for PDI DNA / Particle Size (nm) DNA: hand-mixed DNA LNPs: compound/DOPE/Cholesterol/DMG-PEG2000 38/50/10.0/2.0, lipid:DNA 45:1; for PDI RNA / Particle Size (nm) RNA: hand-mixed mRNA LNPs: compound/DOPE/Cholesterol/DMG-PEG2000 41.44/45.85/10/2.7, lipid:RNA 40:1
Method: LNP compositions of the present disclosure comprising exemplary compounds of Formula (I) were prepared by combining various percentages of an exemplary compound of Formula (I), the phospholipid DOPE, the structural lipid cholesterol (Chol) and 1,2-dimyristoyl-sn-glycerol methoxypolyethylene glycol (DMG-PEG2000; Avanti Polar Lipids, Alabaster, Alabama, USA).
Individual 25 mg/ml stock solutions were prepared by solubilizing the lipids in 200-proof HPLC-grade ethanol and stock solutions were stored at −80° C. until formulated. At the time of formulation, the lipid stock solutions were briefly allowed to equilibrate to room temp and then placed on a hot plate maintained at a temperature range of 50-55° C.
A 1 mg/ml solution of the desired mRNA or DNA to be incorporated into the LNPs was added to 150 mM sodium acetate buffer (pH 5.2) to form a stock solution and kept on ice. The aqueous mRNA or DNA was then added to the lipids as shown in Table 25 or 26 and hand-mixed vigorously with a single channel pipettor.
The resultant mRNA or DNA LNP compositions were then transferred to a Repligen Float-A-Lyzer dialysis device—having a molecular weight cut off (MWCO) of 8-10 kDa (Spectrum Chemical Mfg. Corp, CA, USA) and processed by dialysis against phosphate buffered saline (PBS) (dialysate:dialysis buffer volume at least 1:200 v/v), pH 7.4 overnight at 4° C. (or alternatively room temperature for at least 4 hours), to remove the 25% ethanol and achieve a complete buffer exchange. In some experiments the LNPs were further concentrated by in an Amicon® Ultra-4 centrifugal filter unit, MWCO-30 kDa (Millipore Sigma, USA) spun at ˜4100×g in an ultracentrifuge. The mRNA and DNA LNPs were then stored at 4° C. until further use.
LNP compositions of the present disclosure comprising mRNA or DNA encoding firefly luciferase (hereafter “Flue”; TriLink) and COMPOUNDS 9-21 were prepared as described in Example 14 by combining one of COMPOUNDS 9-21, the phospholipid DOPE, the structural lipid cholesterol (Chol) and 1,2-dimyristoyl-sn-glycerol methoxypolyethylene glycol (DMG-PEG2000) in the percentages presented in Tables 27 and 28:
The physical characteristics of the resulting LNPs were analyzed.

BALB/C mice = test: In vivo intramuscular LNP delivery of fLuciferase mRNA, bioluminescent imaging; settings: intramuscular 20 μg fLuciferase mRNA, right hind limb, BLI at 4 hr; LNP compound/DOPE/Cholesterol/DMG-PEG2000 33.5/32.0/33.5/1.0, lipid:RNA 25:1
Method: (§1) Adult female BALB/C mice (n=2/group) were intramuscularly administered in the right hind limb of each mouse 20 μg of 5′-CleanCap-fLuciferase mRNA (TriLink Biotech) formulated with LNP composition comprising COMPOUND 2 as prepared according to Example 2 in the following percentages shown in Table 16:
The location and extent of luciferase expression in treated and untreated mice were determined at 4 hr and 24 hr by bioluminescent imaging (BLI) of anesthetized mice using an IVIS Lumina in vivo imaging system (Perkin Elmer) according to the manufacturer's instructions. Briefly, mice were anesthetized using isoflurane in oxygen, and placed supine on a heated stage. Mice were then administered D-luciferin (Perkin-Elmer #122799) IP, and BLI was performed.
as §1, with “In another experiment, adult female” for “Adult female”, “comprising one of COMPOUNDS 3-8” for “comprising COMPOUND 2”, “Example 3” for “Example 2”, “Table 18:” for “Table 16:”
The location and extent of luciferase expression in treated and untreated mice were determined at 4 hr by bioluminescent imaging (BLI) of anesthetized mice as described above.

SMILES | PDI DNA [1] | Particle Size (nm) DNA [1] [nm] | PDI RNA [1] | Particle Size (nm) RNA [1] [nm] | Avg IM flux n = 2 (BALB/C mice)
CC(C)C(CCC(C)C(CCC1CCC(C(=O)OCCCCCCCCCCCCCCCCCCCCOC(=O)C2CCC(CCC(SCCN(C)C)C(C)CCC(SCCN(C)C)C(C)C)C(SCCN(C)C)C2)CC1SCCN(C)C)SCCN(C)C)SCCN(C)C (stereo not drawn) [Compound 12] | 0.251 | 228.0 | 0.216 | 162.7 | 
CC(C)C(CCC1CCC(C(=O)OCCCCCCSCCCCCCCCSCCCCCCOC(=O)C2CCC(CCC(SCCN(C)C)C(C)C)C(SCCN(C)C)C2)CC1SCCN(C)C)SCCN(C)C (stereo not drawn) [Compound 21] | 0.230 | 161.1 | 0.273 | 144.9 | 
CC(C)C(CCC1CCC(C(=O)OCCCCCCCCCCCCOC(=O)C2CCC(CCC(SCCN(C)C)C(C)C)C(SCCN(C)C)C2)CC1SCCN(C)C)SCCN(C)C (stereo not drawn) [Compound 15] | 0.201 | 375.6 | 0.208 | 267.1 | 
CC(C)C(CCC(C)C(CCC1CCC(C(=O)OCCCCCCOC(=O)C2CCC(CCC(SCCN(C)C)C(C)CCC(SCCN(C)C)C(C)C)C(SCCN(C)C)C2)CC1SCCN(C)C)SCCN(C)C)SCCN(C)C (stereo not drawn) [Compound 10] | 0.403 | 291.2 | 0.120 | 254.1 | 
CC(C)C(CCC(C)C(CCC1CCC(C(=O)OCCCCCCSCCCCCCCCSCCCCCCOC(=O)C2CCC(CCC(SCCN(C)C)C(C)CCC(SCCN(C)C)C(C)C)C(SCCN(C)C)C2)CC1SCCN(C)C)SCCN(C)C)SCCN(C)C (stereo not drawn) [Compound 20] | 0.189 | 229.6 | 0.211 | 221.0 | 
CC(C)C(CCC1CC2C(=O)N(c3ccc(N4C(=O)C5CC(CCC(SCCN(C)C)C(C)C)C(SCCN(C)C)CC5C4=O)cc3)C(=O)C2CC1SCCN(C)C)SCCN(C)C (stereo not drawn) [Compound 8] |  |  |  |  | 8.31E+4
CC(C)C(CCC1CCC(C(=O)OCCCCCCCCCCCCCCCCCCCCOC(=O)C2CCC(CCC(SCCN(C)C)C(C)C)C(SCCN(C)C)C2)CC1SCCN(C)C)SCCN(C)C (stereo not drawn) [Compound 16] | 0.277 | 149.8 | 0.327 | 188.8 | 
CC(C)C(CCC1CCC(C(=O)OCCCCCCOC(=O)C2CCC(CCC(SCCN(C)C)C(C)C)C(SCCN(C)C)C2)CC1SCCN(C)C)SCCN(C)C (stereo not drawn) [Compound 14] | 0.272 | 392.2 | 0.249 | 222.5 | 
CC(C)C(CCC(C)C(CCC1CCC(C(=O)OCCCCCCCCCCCCOC(=O)C2CCC(CCC(SCCN(C)C)C(C)CCC(SCCN(C)C)C(C)C)C(SCCN(C)C)C2)CC1SCCN(C)C)SCCN(C)C)SCCN(C)C (stereo not drawn) [Compound 11] | 0.366 | 511.8 | 0.156 | 270.4 | 
